Reference: patent publication US20140134658A1, “PSA ENZYMATIC ACTIVITY: A NEW BIOMARKER FOR ASSESSING PROSTATE CANCER AGGRESSIVENESS” (NORTHWESTERN UNIVERSITY, AN ILLINOIS NOT FOR PROFIT …, priority 2010, published 2014)

Key:
esterases = experiment: Sacrificial ester control for esterases in a urine sample with peptide substrate; assay type: biochemical; details: urine sample + peptide substrate 0.4 mM, with and without ester 40 mM; single experiment
Protocol: This was tested by running a urine sample (+peptide substrate; 0.4 mM) with and without a “sacrificial ester” (alanine methyl ester; 40 mM). The idea is that if there are esterases in the sample, adding a relatively high concentration of ester will prevent them from cleaving the peptide substrate and we should therefore see a higher turnover of substrate.

PSA = molecular target: T1, PSA (Homo sapiens, UniProt P07288); experiment: Optical (fluorogenic) assay of peptide substrate cleavage by PSA; assay type: biochemical; details: fluorogenic AMC-labelled substrate, 0.4 mM in buffer A
T1 construct: purchased Scripps Laboratories
Protocol: Serial dilution of PSA (reagent #5)+substrate
The desired clinical urine samples were thawed at room temperature, gently vortexed, and briefly centrifuged (<20 seconds) to accumulate sample at the bottom of the tube. Each 50 μL sample was transferred via pipette to the 96-well microplate. The PSA standards (20 μL) were prepared and loaded in the same way. A multichannel pipette was used to transfer the substrate (150 μL) one column at a time and the start time recorded. Once the entire plate was loaded, it was inserted into the microplate reader and analyzed every 10 min. for 2-12 hrs.
Serial dilution of AMC (reagent #6) to determine linear fluorescence range: Reagent #6 (35.9 μL) was diluted to 2.0 mL buffer A to give a concentration of 0.4 mM. A 1:2 dilution was performed to give a final concentration range of 0.4 mM-0.024 uM. This was loaded into a 96-well microplate in duplicate and scanned one time. Serial dilution of PSA (reagent #5)+substrate: 20 μL of each standard PSA standard solution (see general procedure for protein dilution above) was loaded in duplicate into a 96-well microplate followed by 150 μL of peptide substrate in buffer A (see general procedure above) and scanned for at least 3 hrs. Serial dilution of α-Chymotrypsin (reagent #8)+substrate: Same as experiment 2 but with reagent #8. […]

T1 sequence (P07288 25-261): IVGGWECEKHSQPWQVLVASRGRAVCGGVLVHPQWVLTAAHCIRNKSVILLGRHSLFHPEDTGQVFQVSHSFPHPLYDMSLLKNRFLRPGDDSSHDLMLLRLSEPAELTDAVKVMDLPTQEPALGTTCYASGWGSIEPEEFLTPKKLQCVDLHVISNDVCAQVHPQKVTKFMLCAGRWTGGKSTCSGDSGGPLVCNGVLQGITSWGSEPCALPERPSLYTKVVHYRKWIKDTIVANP

Compound	effect of sacrificial ester on turnover of peptide substrate (esterases)	cleavage of substrate by PSA (PSA)
COC(=O)[C@H](C)N [alanine methyl ester]	no difference between the sample run with ester and that run without ester	
Mor-HSSK-Hic-Q-AMC		show cleavage by PSA
Mor-HSSK-Hiv-Q-AMC		show cleavage by PSA
